Measurements as given in patent US20230047788A1, “COMPOSITIONS COMPRISING 5-CHOLESTEN-3, 25-DIOL, 3-SULFATE (25HC3S) OR PHARMACEUTICALLY ACCEPTABLE SALT THEREOF AND AT LEAST ONE CYCLIC OLIGOSACCHARIDE” (Virginia Commonwealth University, priority 2016, published 2023).

Key:
[1] = human, in vivo
Protocol: This example describes a randomized, double-blind, placebo-controlled, safety and pharmacokinetic study of a parenteral formulation of 25HC3S. The study involved the administration of 25HC3S sodium salt to healthy subjects via intramuscular injections (IM) as i) single ascending doses (SAD) in the range of 30-300 mg and as ii) a multiple ascending dose (MAD) study using multiple IM doses of 150 mg administered daily for 5 days (see Table 13). All subjects were male, with an age range of 19-36 years.
In Part A of the study (SAD), a parenteral dose of 25HC3S or matching placebo was administered intramuscularly (IM) to cohorts of 6 healthy subjects (4 randomized to 25HC3S and two randomized to matching placebo on a double-blind basis). The initial dose was 30 mg and subsequent cohorts of 6 different subjects received doses of 90, 150, and 300 mg of 25HC3S. A total of 16 subjects received 25HC3S and 8 received placebo in Part A. In Part B (MAD), a parenteral dose of 150 mg 25HC3S or matching placebo was administered IM once daily for 5 days, altering injection sites, to a single cohort of 10 healthy subjects (8 randomized to 25HC3S and two randomized to matching placebo on a double-blind basis; see Table 14).
Safety assessments included periodic monitoring of routine vital signs, safety laboratory tests and 12 lead ECG collection. Subjects completed a screening phase, treatment and an end-of-study visit. Dose escalation to the next dose level in Part I and Part II of the study was undertaken following review of the preceding dose results.
Pain intensity (measured on a 0-10 numeric rating scale) was assessed after each injection, and the injection sites were examined for tenderness, redness, bruising, swelling and induration at specified time points after injection.

[2] = tested on: liver function markers ALT, AST, ALK, LDH; experiment: Liver function markers in serum of mice overdosed with APAP (350 mg/kg); format: in vivo, C57BL/6J mice; conditions: vehicle plus 25 mg/kg 25HC3S 0.5 hours after overdose, 24 hours after treatment
Protocol: The ability of 25HC3S to treat symptoms of APAP overdose was examined. 12-week-old male C57BL/6J mice were fasted overnight and injected (intraperitoneally) with APAP: 600 mg/kg (high dose) for mortality studies or 350 mg/kg (low dose) for liver function and gene studies. Control mice received only vehicle (20% (v/v) a propylene glycol, 4% (w/v) cyclodextrin (powdered hydroxypropyl beta cyclodextrin in sterile 10% (w/v) glucose.
A composition comprising 25 mg/kg of 25HC3S sodium salt in vehicle was administered intravenously to the experimental mice 0.5 hours after APAP administration. Mortality was monitored in the high dose mice. In the low dose mice, the liver function markers aspartate aminotransferase (AST), alanine aminotransferase (ALT), alkaline phosphatase (ALK) and lactate dehydrogenase (LDH), were measured in serum. Impacts on gene expression were determined by Quantitative Real-time PCR. Membrane potentials were measured using JC1 staining and flow cytometry.
One group of low dose mice received treatment with 25HC3S in vehicle 0.5 hours after the overdose. In this group, liver function markers were assessed 24 hours after treatment. […] However, in mice treated with vehicle alone, the values were […] and in mice treated with vehicle plus 25 mg/kg of 25HC3S, the values were near normal. The differences in the measured values were statistically significant.

C[C@H](CCCC(C)(C)O)[C@H]1CC[C@H]2[C@@H]3CC=C4C[C@@H](OS(=O)(=O)[O-])CC[C@]4(C)[C@H]3CC[C@]12C.[Na+] [25HC3S, 5-cholesten-3, 25-diol, 3-sulfate]
first time point with detectable drug levels [1]: 0.5 h
mean pain intensity (0-10 numeric rating scale) [1]: 0.8-3.5
time by which pain had resolved after injection [1]: ≤ 1 h
time of maximal pain intensity after injection [1]: 5 to 10 min
liver function markers ALT, AST and LDH [2]: near normal
